The structures appear in SMILES notation.

The assay deals with T1, Ba/F3 cell EGFR Exon20 ins NPH (Homo sapiens, UniProt P00533, INS773NPH).
T1 construct: expressed in transfected cells; host or cells: Ba/F3
The assay can be described thus: Ba/F3 cell proliferation suppression, EGFR Exon20 ins NPH. It is filed as cell-based. To be noted: GI50 class; Ba/F3 cell line with NPH inserted at Exon20 of EGFR; 72 hours. A digest of the protocol: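 After 72 h compound exposure (twelve 3-fold steps, 0.3 nM–50 um final), live cells were measured by CellTiter-Glo luminescence and growth expressed as % of control to derive GI50. Cells were seeded at 3000–5000 per well a day earlier; Ba/F3 medium contained IL-3; three repeats.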
Turning to `C=CC(=O)Nc1cc(Nc2cc(N3OCC[C@H]3Cc3ccccc3)ncn2)c(OC)cc1N1CCN(C2CCCC2)CC1` [compound 977, N-(5-((6-((R)-3-benzylisoxazolidine-2-yl)pyrimidine-4-yl)amino)-2-(4-cyclopentylpiperazine-1-yl)-4-methoxyphenyl) acrylamide], the “Ba/F3 (NPH) Activity” value is reported as “C (500 nM ≤ GI50 < 5000 nM)”.
In the case of `C=CC(=O)Nc1cc(Nc2cc(N3OCC[C@@H]3c3cccc(F)c3F)ncn2)c(OC)cc1N1CCC(N2CCN(C3CC3)[C@H](C)C2)CC1` [Example 176, N-(2-(4-((R)-4-cyclopropyl-3-methylpiperazine-1-yl)piperidine-1-yl)-5-((6-((R)-3-(2,3-difluorophenyl)isoxazolidine-2-yl)pyrimidine-4-yl)amino)-4-methoxyphenyl) acrylamide], the “Ba/F3 (NPH) Activity” value is given as “A (GI50 < 50 nM)”.
On to `C=CC(=O)Nc1cc(Nc2cc(N3OCC[C@@H]3c3ccc(F)cc3F)ncn2)c(OC)cc1N(C)CCOC` [compound 347, N-(5-((6-((R)-3-(2,4-difluorophenyl)isoxazolidine-2-yl)pyrimidine-4-yl)amino)-4-methoxy-2-((2-methoxyethyl)(methyl)amino)phenyl) acrylamide], for which the “Ba/F3 (NPH) Activity” value was “A (GI50 < 50 nM)”.
Consider `C=CC(=O)Nc1cc(Nc2cc(N3OCC[C@@H]3Cc3ccccc3)ncn2)c(OC)cc1N1C[C@H]2C[C@@H]1CN2CC` [compound 949, N-(5-((6-((S)-3-benzylisoxazolidine-2-yl)pyrimidine-4-yl)amino)-2-((1R,4R)-5-ethyl-2,5-diazabicyclo [2.2.1]heptane-2-yl)-4-methoxyphenyl) acrylamide], for which the “Ba/F3 (NPH) Activity” value is listed as “A (GI50 < 50 nM)”.
Next, `C=CC(=O)Nc1cc(Nc2cc(N3OCC[C@@H]3c3cccc(F)c3F)ncn2)c(OC)cc1N1CCC(N2CCN(C)[C@@H](C)C2)CC1` [compound 335, N-(5-((6-((R)-3-(2,3-difluorophenyl)isoxazolidine-2-yl)pyrimidine-4-yl)amino)-2-(4-((S)-3,4-dimethylpiperazine-1-yl)piperidine-1-yl)-4-methoxyphenyl) acrylamide]: “A (GI50 < 50 nM)”; `C=CC(=O)Nc1cc(Nc2cc(N3OCC[C@@H]3c3cccc(Cl)c3C)ncn2)c(OC)cc1N1CCC(N2C[C@@H](C)O[C@@H](C)C2)CC1` [compound 528, N-(5-((6-((R)-3-(3-chloro-2-methylphenyl)isoxazolidine-2-yl)pyrimidine-4-yl)amino)-2-(4-((2S,6R)-2,6-dimethylmorpholino)piperidine-1-yl)-4-methoxyphenyl) acrylamide]: “A (GI50 < 50 nM)”; `C=CC(=O)Nc1cc(Nc2cc(N3OCC[C@@H]3c3cccc4ccccc34)ncn2)c(OC)cc1N1CCC(N2CCO[C@H](C)C2)CC1` [compound 536, N-(4-methoxy-2-(4-((R)-2-methylmorpholino)piperidine-1-yl)-5-((6-((R)-3-(naphthalene-1-yl)isoxazolidine-2-yl)pyrimidine-4-yl)amino)phenyl) acrylamide]: “A (GI50 < 50 nM)”.
As to `C=CC(=O)Nc1cc(Nc2cc(N3OCC[C@@H]3c3cccc(Cl)c3C)ncn2)c(OC)cc1N1CCC(N2CCN(C3CC3)[C@H](C)C2)CC1` [Example 152, N-(5-((6-((R)-3-(3-chloro-2-methylphenyl)isoxazolidine-2-yl)pyrimidine-4-yl)amino)-2-(4-((R)-4-cyclopropyl-3-methylpiperazine-1-yl)piperidine-1-yl)-4-methoxyphenyl) acrylamide], the “Ba/F3 (NPH) Activity” value is reported as “A (GI50 < 50 nM)”.
As for `C=CC(=O)Nc1cc(Nc2cc(N3OCC[C@@H]3c3ccc(Cl)c(Cl)c3F)ncn2)c(OC)cc1N1CCC(N2CCN(C3COC3)CC2)CC1` [Example 84, N-(5-((6-((R)-3-(3,4-dichloro-2-fluorophenyl)isoxazolidine-2-yl)pyrimidine-4-yl)amino)-4-methoxy-2-(4-(4-(oxetane-3-yl)piperazine-1-yl)piperidine-1-yl)phenyl)acrylamide], the entry is “B (50 nM ≤ GI50 < 500 nM)”.
Take `C=CC(=O)Nc1cc(Nc2cc(N3OCC[C@@H]3c3cccs3)ncn2)c(OC)cc1N1CCC(N2C[C@H]3C[C@@H]2CO3)CC1` [compound 930, N-(2-(4-((1R,4R)-2-oxa-5-azabicyclo [2.2.1]heptane-5-yl)piperidine-1-yl)-4-methoxy-5-((6-((R)-3-(thiophene-2-yl)isoxazolidine-2-yl)pyrimidine-4-yl)amino)phenyl)acrylamide]: the “Ba/F3 (NPH) Activity” value is given as “A (GI50 < 50 nM)”.
Consider `C=CC(=O)Nc1cc(Nc2cc(N3OCC[C@@H]3c3cccc(C)c3F)ncn2)c(OC)cc1N1CCC(N2CCOCC2)CC1` [compound 856, N-(5-((6-((R)-3-(2-fluoro-3-methylphenyl)isoxazolidine-2-yl)pyrimidine-4-yl)amino)-4-methoxy-2-(4-morpholinopiperidine-1-yl)phenyl)acrylamide], for which the “Ba/F3 (NPH) Activity” value is listed as “A (GI50 < 50 nM)”.
`C#Cc1cccc([C@H]2CCON2c2cc(Nc3cc(NC(=O)C=C)c(N(C)CCN(C)C)cc3OC)ncn2)c1` [compound 616, N-(2-((2-(dimethylamino)ethyl) (methyl)amino)-5-((6-((R)-3-(3-ethynylphenyl)isoxazolidine-2-yl)pyrimidine-4-yl)amino)-4-methoxyphenyl) acrylamide]: the “Ba/F3 (NPH) Activity” value was “A (GI50 < 50 nM)”.
Next, `C=CC(=O)Nc1cc(Nc2cc(N3OCC[C@@H]3c3cccc(C#N)c3)ncn2)c(OC)cc1N1CCC(N2CCN(C)CC2)CC1` [compound 398, N-(5-((6-((R)-3-(3-cyanophenyl)isoxazolidine-2-yl)pyrimidine-4-yl)amino)-4-methoxy-2-(4-(4-methylpiperazine-1-yl)piperidine-1-yl)phenyl) acrylamide]: “A (GI50 < 50 nM)”; `C=CC(=O)Nc1cc(Nc2cc(N3OCC[C@@H]3c3cc(F)ccc3F)ncn2)c(OC)cc1N1CC[C@@H](N(C)C)C1` [compound 848, N-(5-((6-(2,5-((R)-3-difluorophenyl)isoxazolidine-2-yl)pyrimidine-4-yl)amino)-2-((R)-3-(dimethylamino)pyrolidine-1-yl)-4-methoxyphenyl) acrylamide]: “A (GI50 < 50 nM)”; `C=CC(=O)Nc1cc(Nc2cc(N3OCC[C@@H]3c3cc(F)ccc3F)ncn2)c(OC)cc1N1CCC(N2C[C@@H]3C[C@H]2CO3)CC1` [compound 826, N-(2-(4-((1S,4S)-2-oxa-5-azabicyclo [2.2.1]heptane-5-yl)piperidine-1-yl)-5-((6-((R)-3-(2,5-difluorophenyl)isoxazolidine-2-yl)pyrimidine-4-yl)amino)-4-methoxyphenyl) acrylamide]: “A (GI50 < 50 nM)”.
As for `C=CC(=O)Nc1cc(Nc2cc(N3OCC[C@@H]3Cc3cccc(F)c3C)ncn2)c(OC)cc1N1CCC(N2CCN(C3CC3)[C@H](C)C2)CC1` [compound 1004, N-(2-(4-((R)-4-cyclopropyl-3-methylpiperazine-1-yl)piperidine-1-yl)-5-((6-((S)-3-(3-fluoro-2-methylbenzyl)isoxazolidine-2-yl)pyrimidine-4-yl)amino)-4-methoxyphenyl) acrylamide], the entry is “A (GI50 < 50 nM)”; as for `C=CC(=O)Nc1cc(Nc2cc(N3OCC[C@@H]3c3cccc4ccccc34)ncn2)c(OC)cc1N1CCC(N2CCN(CC)CC2)CC1` [compound 484, N-(2-(4-(4-ethylpiperazine-1-yl)piperidine-1-yl)-4-methoxy-5-((6-((R)-3-(naphthalene-1-yl)isoxazolidine-2-yl)pyrimidine-4-yl)amino)phenyl)acrylamide], “B (50 nM ≤ GI50 < 500 nM)”; as for `C=CC(=O)Nc1cc(Nc2cc(N3OCC[C@@H]3c3ccc(F)cc3F)ncn2)c(OC)cc1N1CCC(N2CCN(CC)CC2)CC1` [compound 424, N-(5-((6-((R)-3-(2,4-difluorophenyl)isoxazolidine-2-yl)pyrimidine-4-yl)amino)-2-(4-(4-ethylpiperazine-1-yl)piperidine-1-yl)-4-methoxyphenyl) acrylamide], “A (GI50 < 50 nM)”.
With `C=CC(=O)Nc1cc(Nc2cc(N3OCC[C@@H]3c3cccc(Cl)c3Cl)ncn2)c(OC)cc1N1CCOCC1` [compound 517, N-(5-((6-((R)-3-(2,3-dichlorophenyl)isoxazolidine-2-yl)pyrimidine-4-yl)amino)-4-methoxy-2-morpholinophenyl) acrylamide], the “Ba/F3 (NPH) Activity” value is recorded as “A (GI50 < 50 nM)”.
`C=CC(=O)Nc1cc(Nc2cc(N3OCC[C@@H]3Cc3ccccc3)ncn2)c(OC)cc1N(C)CCOC` [compound 953, N-(5-((6-((S)-3-benzylisoxazolidine-2-yl)pyrimidine-4-yl)amino)-4-methoxy-2-((2-methoxyethyl) (methyl)amino)phenyl) acrylamide]: the “Ba/F3 (NPH) Activity” value was “B (50 nM ≤ GI50 < 500 nM)”.
As to `C=CC(=O)Nc1cc(Nc2cc(N3OCC[C@@H]3c3ccccc3)ncn2)c(OC)cc1N1CCC(N2C[C@@H]3C[C@H]2CO3)CC1` [Example 54, N-(2-(4-((1S,4S)-2-oxa-5-oxabicyclo[2.2.1]heptane-5-yl)piperidine-1-yl)-4-methoxy-5-((6-((R)-3-phenylisoxazolidne-2-yl)pyrimidine-4-yl)amino)phenyl) acrylamide], the “Ba/F3 (NPH) Activity” value was “A (GI50 < 50 nM)”.
With `C=CC(=O)Nc1cc(Nc2cc(N3OCC[C@@H]3c3ccc(F)c(Cl)c3)ncn2)c(OC)cc1N1CCC(N2C[C@H]3C[C@@H]2CO3)CC1` [Example 257, N-(2-(4-((1R,4R)-2-oxa-5-azabicyclo[2.2.1]heptane-5-yl)piperidine-1-yl)-5-((6-((R)-3-(3-chloro-4-fluorophenyl)isoxazolidine-2-yl)pyrimidine-4-yl)amino)-4-methoxyphenyl) acrylamide], the “Ba/F3 (NPH) Activity” value was “A (GI50 < 50 nM)”.

The values are drawn from patent publication US12157730B2, “Heteroaryl derivative, method for producing same, and pharmaceutical composition comprising same as effective component” (VORONOI INC., priority 2019, dated 2024).
